# Laboratory results taken from patent US9765074B2, “Inhibitors of the renal outer medullary potassium channel” (Merck Sharp & Dohme Corp., priority 2013, dated 2017).
# Biological target: T1, hROMK (hKir1.1) (Homo sapiens, UniProt P48048)
# T1 construct: expressed in transfected cells
# T1 sequence (P48048 1-391): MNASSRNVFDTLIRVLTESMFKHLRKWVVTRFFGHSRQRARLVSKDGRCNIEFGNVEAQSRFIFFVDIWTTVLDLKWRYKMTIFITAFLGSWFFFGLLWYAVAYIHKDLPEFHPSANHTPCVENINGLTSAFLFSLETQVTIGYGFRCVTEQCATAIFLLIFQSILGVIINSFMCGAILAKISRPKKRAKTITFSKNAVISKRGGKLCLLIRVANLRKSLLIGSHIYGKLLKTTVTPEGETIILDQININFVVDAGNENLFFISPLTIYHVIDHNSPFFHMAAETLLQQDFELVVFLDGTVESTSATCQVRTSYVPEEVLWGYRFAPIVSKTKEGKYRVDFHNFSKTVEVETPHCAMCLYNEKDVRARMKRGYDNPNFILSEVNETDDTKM
# Assay: Thallium Flux Assay (ROMK channel functional thallium flux, FLIPR-Tetra)
# Type: cell-based
# Details: HEK293 cells stably expressing hROMK (hKir1.1); 30 min compound incubation
# Method in brief: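 Thallium flux read by FluxOR fluorescence ([…]) for ~10 min after adding 3 mM Tl+/0.3 mM K+ final. Stable HEK-hKir1.1 cells were dye-loaded 90 min, exposed to compound 30 min at room temperature in ouabain/probenecid buffer; IC50 relative to a 3 μM control inhibitor.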
row,IC50 [nM],Structure (SMILES)
1,80,"O=C1C=C(N2CCC3(CCN(C[C@H](O)c4cnc(-n5cnnn5)nc4)CC3)C2=O)CO1 [Example 9, 8-{(2R)-2-hydroxy-2-[2-(1H-tetrazol-1-yl)pyrimidin-5-yl]ethyl}-1-oxo-2-(5-oxo-2,5-dihydrofuran-3-yl)-2-aza-8-azoniaspiro[4.5]decane]"
2,80,"CC1=C(N2C(=O)C3(CCN(C[C@H](O)c4cnc(-n5cnnn5)nc4)CC3)CC2C)COC1=O (single isomer, unassigned) [Example 113]"
3,20,"CC1=C(N2CCC3(CCN(C[C@@H](O)c4ccc(-n5cnnn5)nc4)CC3F)C2=O)COC1=O (single isomer, unassigned) [Example 193]"
4,70,"CC1=C(N2CCC3(CCN(C[C@@H](O)c4nnc(-n5cnnn5)cc4C)CC3F)C2=O)COC1=O (single isomer, unassigned) [Example 186]"
5,100,"CO[C@H](CN1CCC2(CC1)C[C@@H](C)N(C1=C(C)C(=O)OC1)C2=O)c1ccc(-n2cnnn2)nc1 [Example 287, (3R)-8-{(2S)-2-methoxy-2-[6-(1H-tetrazol-1-yl)pyridin-3-yl]ethyl}-3-methyl-2-(4-methyl-5-oxo-2,5-dihydrofuran-3-yl)-1-oxo-2-aza-8-azoniaspiro[4.5]decane]"
6,5,"CCc1nc(-n2cnnn2)cnc1CCN1CCC2(CC1)C[C@H](C)N(C1=CC(=O)OC1)C2=O [Example 271, (S)-8-(2-(3-ethyl-5-(1H-tetrazol-1-yl)pyrazin-2-yl)ethyl)-3-methyl-2-(5-oxo-2,5-dihydrofuran-3-yl)-2,8-diazaspiro[4.5]decan-1-one]"
7,40,"O=C1C=C(N2C(=O)C3(CCN(C[C@H](O)c4ccc(-n5cnnn5)nn4)CC3)CC2C2CC2)CO1 (mixture of isomers) [Example 211, 3-cyclopropyl-8-{(2S)-2-hydroxy-2-[6-(1H-tetrazol-1-yl)pyridazin-3-yl]ethyl}-2-(5-oxo-2,5-dihydrofuran-3-yl)-2,8-diazaspiro[4.5]decan-1-one]"
8,770,"COC1CN(C[C@@H](O)c2cnc(-n3cnnn3)cn2)CCC12CCN(C1=C(C)C(=O)OC1)C2=O (single isomer, unassigned) [Example 173]"
9,50,"CC1=C(N2CCC3(CCN(C[C@H](O)c4nnc(-n5cnnn5)cc4C)CC3F)C2=O)COC1=O (single isomer, unassigned) [Example 185]"
10,40,"CCC1CC2(CCN(C[C@H](O)c3cnc(-n4cnnn4)cn3)CC2)C(=O)N1C1=CC(=O)OC1 (mixture of isomers) [Example 220, 3-ethyl-8-{(2S)-2-hydroxy-2-[5-(1H-tetrazol-1-yl)pyrazin-2-yl]ethyl}-2-(5-oxo-2,5-dihydrofuran-3-yl)-2,8-diazaspiro[4.5]decan-1-one]"
11,10,"CC1=C(N2C=CC3(CCN([C@@H](C)Cc4ccc(-n5cnnn5)nn4)CC3)C2=O)COC1=O (single isomer, unassigned) [Example 272]"
12,30,"CC1=C(N2C(=O)C3(CCN(C[C@H](O)c4ccc(-n5cnnn5)cc4F)CC3)CC2C)COC1=O (single isomer, unassigned) [Example 141]"
13,20,"CC1=C(N2CCC3(CCN(C(CO)Cc4ccc(-n5cnnn5)nc4)CC3)C2=O)COC1=O (single isomer, unassigned) [Example 295]"
14,10,"CC1=C(N2CCC3(CCN([C@@H](C)Cc4ccc(-n5cnnn5)nn4)CC3)C2=O)COC1=O (single isomer, unassigned) [Example 293]"
15,100,"CC1=CN(C2=C(C)C(=O)OC2)C(=O)C12CCN(C[C@H](O)c1ccc(-n3cnnn3)nn1)CC2 [Example 166, 8-{(2S)-2-hydroxy-2-[6-(1H-tetrazol-1-yl)pyridazin-3-yl]ethyl}-4-methyl-2-(4-methyl-5-oxo-2,5-dihydrofuran-3-yl)-1-oxo-2-aza-8-azoniaspiro[4.5]dec-3-ene]"
16,40,"CC1(C)CC2(CCN(C[C@H](O)c3cnc(-n4cnnn4)cn3)CC2)C(=O)N1C1=CC(=O)OC1 [Example 164, 8-{(2S)-2-hydroxy-2-[5-(1H-tetrazol-1-yl)pyrazin-2-yl]ethyl}-3,3-dimethyl-1-oxo-2-(5-oxo-2,5-dihydrofuran-3-yl)-2-aza-8-azoniaspiro[4.5]decane]"
17,30,"CC1=C(N2C=CC3(CCN(C[C@H](O)c4ccc(-n5cnnn5)nc4)CC3)C2=O)COC1=O [Example 116, 8-{(2R)-2-hydroxy-2-[6-(1H-tetrazol-1-yl)pyridin-3-yl]ethyl}-2-(4-methyl-5-oxo-2,5-dihydrofuran-3-yl)-1-oxo-2-aza-8-azoniaspiro[4.5]dec-3-ene]"
18,30,"O=C1C=C(N2C(=O)C3(CCN(C[C@H](O)c4ccc(-n5cnnn5)nc4)CC3)CC2C2CC2)CO1 (mixture of isomers) [Example 215, 3-cyclopropyl-8-{(2R)-2-hydroxy-2-[6-(1H-tetrazol-1-yl)pyridin-3-yl]ethyl}-2-(5-oxo-2,5-dihydrofuran-3-yl)-2,8-diazaspiro[4.5]decan-1-one]"
19,20,"CC1=C(N2C(=O)C3(CCN(C[C@H](O)c4ccc(-n5cnnn5)nc4C)CC3)CC2C)COC1=O (mixture of isomers) [Example 57, 8-{(2R)-2-hydroxy-2-[2-methyl-6-(1H-tetrazol-1-yl)pyridin-3-yl]ethyl}-3-methyl-2-(4-methyl-5-oxo-2,5-dihydrofuran-3-yl)-1-oxo-2-aza-8-azoniaspiro[4.5]decane]"
20,3,"Cc1nc(-n2cnnn2)cnc1CCN1CCC2(CC1)C[C@H](C)N(C1=CC(=O)OC1)C2=O [Example 261, (3S)-3-methyl-8-{2-[3-methyl-5-(1H-tetrazol-1-yl)pyrazin-2-yl]ethyl}-2-(5-oxo-2,5-dihydrofuran-3-yl)-2,8-diazaspiro[4.5]decan-1-one]"
21,2000,"CC1CC2(CCN(C(C)(C)C(O)c3cnc(-n4cnnn4)cn3)CC2)C(=O)N1C1=CC(=O)OC1 (single isomer, unassigned) [Example 303, 8-(1-(5-(1H-tetrazol-1-yl)pyrazin-2-yl)-1-hydroxy-2-methylpropan-2-yl)-3-methyl-2-(5-oxo-2,5-dihydrofuran-3-yl)-2,8-diazaspiro[4.5]decan-1-one]"
22,10,"Cc1cc(-n2cnnn2)ccc1[C@H](O)CN1CCC2(CC1)CCN(C1=CC(=O)OC1)C2=O [Example 12, 8-{(2S)-2-hydroxy-2-[2-methyl-4-(1H-tetrazol-1-yl)phenyl]ethyl}-1-oxo-2-(5-oxo-2,5-dihydrofuran-3-yl)-2-aza-8-azoniaspiro[4.5]decane]"
23,10,"C[C@H]1CC2(CCN(C[C@@H](O)c3cnc(-n4cnnn4)cn3)CC2)C(=O)N1C1=CC(=O)OC1 [Example 78, (3S)-8-{(2R)-2-hydroxy-2-[5-(1H-tetrazol-1-yl)pyrazin-2-yl]ethyl}-3-methyl-1-oxo-2-(5-oxo-2,5-dihydrofuran-3-yl)-2-aza-8-azoniaspiro[4.5]decane]"
24,10,"CCC1CC2(CCN(C[C@H](O)c3ccc(-n4cnnn4)nc3)CC2)C(=O)N1C1=CC(=O)OC1 (mixture of isomers) [Example 218, 3-ethyl-8-{(2R)-2-hydroxy-2-[6-(1H-tetrazol-1-yl)pyridin-3-yl]ethyl}-2-(5-oxo-2,5-dihydrofuran-3-yl)-2,8-diazaspiro[4.5]decan-1-one]"
25,560,"CC1(O)CC2(CCN(C[C@H](O)c3ccc(-n4cnnn4)nn3)CC2)C(=O)N1C1=CC(=O)OC1 (stereo partly drawn) [Example 158, 3-hydroxy-8-{(2S)-2-hydroxy-2-[6-(1H-tetrazol-1-yl)pyridazin-3-yl]ethyl}-3-methyl-1-oxo-2-(5-oxo-2,5-dihydrofuran-3-yl)-2-aza-8-azoniaspiro[4.5]decane]"
26,10,"COc1cc(-n2cnnn2)ccc1[C@H](O)CN1CCC2(CC1)CCN(C1=C(C)C(=O)OC1)C2=O [Example 120, 8-{(2S)-2-hydroxy-2-[2-methoxy-4-(1H-tetrazol-1-yl)phenyl]ethyl}-2-(4-methyl-5-oxo-2,5-dihydrofuran-3-yl)-1-oxo-2-aza-8-azoniaspiro[4.5]decane]"

row,Structure (SMILES),IC50 [nM]
1,"CC1=C(N2CCC3(CC4CCC(C3)N4C[C@@H](O)c3ccc(-n4cnnn4)nn3)C2=O)COC1=O (stereo partly drawn) [Example 53, (1R,5R)-8-{(2R)-2-hydroxy-2-[6-(1H-tetrazol-1-yl)pyridazin-3-yl]ethyl}-1′-(4-methyl-5-oxo-2,5-dihydrofuran-3-yl)-2′-oxospiro[8-azoniabicyclo[3.2.1]octane-3,3′-pyrrolidine]]",10
2,"CC1=C(N2C(=O)C3(CC2C)CC2CCC(C3)N2C[C@@H](O)c2ccc(-n3cnnn3)nc2)COC1=O (single isomer, unassigned) [Example 134]",60
3,"CC1=C(N2CCC3(CC4CCC(C3)N4CCc3ccc(-n4cnnn4)nn3)C2=O)COC1=O [Example 235, (1S,5S)-1′-(4-methyl-5-oxo-2,5-dihydrofuran-3-yl)-2′-oxo-8-{2-[6-(1H-tetrazol-1-yl)pyridazin-3-yl]ethyl}spiro[8-azoniabicyclo[3.2.1]octane-3,3′-pyrrolidine]]",10
4,"COC1CN(C2=C(C)C(=O)OC2)C(=O)C12CC1CCC(C2)N1C[C@H](O)c1ccc(-n2cnnn2)nc1 (single isomer, unassigned) [Example 161]",30
5,"CC1CC2(CC3CCC(C2)N3C[C@@H](O)c2ccc(-n3cnnn3)nc2)C(=O)N1C1=CC(=O)OC1 (single isomer, unassigned) [Example 103]",10
